Key:
Type in all cases: functional
Staphylococcus aureus [1] = experiment: Antimicrobial activity against methicillin-resistant Staphylococcus aureus COL at 100 ug/disk after 24 hrs by disk diffusion method; conditions: read-out: IZ
Staphylococcus aureus [2] = experiment: Antimicrobial activity against methicillin-resistant Staphylococcus aureus 5 at 100 ug/disk after 24 hrs by disk diffusion method; conditions: read-out: IZ
Helicobacter pylori [3] = experiment: Antimicrobial activity against Helicobacter pylori ATCC 43504 at 100 ug/disk after 4 days by disk diffusion method; conditions: ATCC 43504, 96 h, read-out: IZ
Helicobacter pylori [4] = experiment: Antimicrobial activity against Helicobacter pylori ATCC 43504 at 0.25 ug/disk after 4 days by disk diffusion method; conditions: ATCC 43504, 96 h, read-out: IZ
Staphylococcus aureus [5] = experiment: Antimicrobial activity against methicillin-resistant Staphylococcus aureus COL at 20 ug/disk after 24 hrs by disk diffusion method; conditions: read-out: IZ
Staphylococcus aureus [6] = experiment: Antimicrobial activity against methicillin-resistant Staphylococcus aureus 5 at 20 ug/disk after 24 hrs by disk diffusion method; conditions: read-out: IZ

Structure (SMILES): COc1c(O)c(OC)c2oc(-c3ccc(O)cc3)cc(=O)c2c1O
- zone of inhibition at 100 µg/disc (Staphylococcus aureus [1]): 12.5 mm
- zone of inhibition at 100 µg/disc (Staphylococcus aureus [2]): 23.8 mm
- zone of inhibition at 100 µg/disc (Helicobacter pylori [3]): 10.5 mm

Structure (SMILES): CC1(C)S[C@@H]2[C@H](NC(=O)[C@H](N)c3ccc(O)cc3)C(=O)N2[C@H]1C(=O)O [AMOXICILLIN]
- zone of inhibition at 0.25 µg/disc (Helicobacter pylori [4]): 33 mm

Structure (SMILES): CC(=O)OCC1=C(C(=O)O)N2C(=O)[C@@H](NC(=O)CSc3ccncc3)[C@H]2SC1 [CEPHAPIRIN]
- zone of inhibition at 20 µg/disc (Staphylococcus aureus [5]): 8.2 mm
- zone of inhibition at 20 µg/disc (Staphylococcus aureus [6]): 9.4 mm

Structure (SMILES): COc1cc(-c2cc(=O)c3c(O)c(OC)c(O)c(OC)c3o2)ccc1O [SUDACHITIN]
- zone of inhibition at 100 µg/disc (Staphylococcus aureus [1]): 12 mm
- zone of inhibition at 100 µg/disc (Staphylococcus aureus [2]): 25.4 mm
- zone of inhibition at 100 µg/disc (Helicobacter pylori [3]): 14 mm
